Test results: patent US20100173832A1, “ANTICANCEROUS POLYMERIC AGENTS” (TECHNION RESEARCH & DEVELOPMENT FOUNDATION LTD., priority 2007, published 2010)
Like-named read-outs stand apart in the source and are kept apart here. Non-standard residues stand in square brackets, D forms with d. Residues, ends and D or L forms follow the SMILES beside them. *: point of attachment. Lauroyl = CCCCCCCCCCCC(=O)*; 12Ado = NCCCCCCCCCCCC(=O)O

Tests used:
[1] = test system: TRAMP-C2 cell line; format: cell-based; conditions: for CC50: 24 hours incubation, XTT, read-out: Cancer LC50 Mouse prostate cancer TRAMP-C2
Source text: Transgenic adenocarcinoma mouse prostate cells (TRAMP-C2);
(§1) As a routine cancer cell killing assay for assessment of antitumor activity, 2,3-bis(2-methoxy-4-nitro-5-sulfophenyl)-2H-tetrazolium-5-carboxanilide inner salt (XTT) reduction assay was used, utilizing a commercial kit such as, for example, Cell Proliferation XTT Kit, Cat. No. 20-300-1000, Biological Industries Ltd., Kibbutz Beit Haemek, Israel. XTT is a tetrazolium salt which is cleaved to formazan colored compounds by the mitochondrial dehydrogenase enzymes indicating proper mitochondrial activity in intact cells.
(§2) Thereafter, a series of increasing concentrations of the polymers were added. After another 24 hours of incubation, XTT reaction solution was added (50 μl of XTT per 100 μl of cell culture medium). The optical density of the cells was measured at 450 nm by ELISA plate reader after 2-4 hours XTT incubation. Cell viability was determined relative to a control having no polymer added thereto.
“Mouse prostate cancer TRAMP-C2” represents the lethal concentration in μM as measured against TRAMP-C2 cell line, measured as described hereinabove in the cell proliferation XTT assay (column 5 in Table 3);

[2] = test system: MCF-7 cell line; format: cell-based
Method: Human breast adenocarcinoma cells (MCF-7);
Thereafter, a series of increasing concentrations of the polymers were added. […] The optical density of the cells was measured at 450 nm by ELISA plate reader after 2-4 hours XTT incubation. Cell viability was determined relative to a control having no polymer added thereto.

[3] = test system: N-417 cell line; assay: XTT cell viability assay, N-417 cells; format: cell-based; conditions: 24 hours incubation, XTT; read-out: Cancer LC50 Human small-cell lung carcinoma N-417
Source text: Variant small cell lung cancer cells (N-417, SCLC);
as §1, §2
“Human breast cancer MCF-7” represents the lethal concentration in μM as measured against MCF-7 cell line, measured as described hereinabove in the cell proliferation XTT assay (column 6 in Table 3); “Human small-cell lung carcinoma N-417” represents the lethal concentration in μM as measured against N-417 cell line, measured as described hereinabove in the cell proliferation XTT assay (column 7 in Table 3);

[4] = XTT cell viability assay, non-cancerous cardiac fibroblasts (CF); format: cell-based, rat; conditions: rat
Source text: Primary non-cancerous rat cardiac fibroblasts (CF);
as §1, §2
“Rat primary cardiac fibroblast CF” represents the lethal concentration in μM as measured against CF cell line, measured as described hereinabove in the cell proliferation XTT assay (column 8 in Table 3);

[5] = in vitro; conditions: human, red blood cells
Method: (§3) The polymer's toxic potential was determined against human red blood cells (RBC) by measuring leakage of hemoglobin therefrom in phosphate buffer solution (PBS). Human blood samples were rinsed three times in PBS by centrifugation for 2 minutes at 200×g, and re-suspended in PBS at 5% hematocrit. A 50 μl-fractions of a suspension containing […] RBC were added to test tubes containing 200 μl of polymer solutions (2-fold serial dilutions in PBS), PBS alone (for base-line values), or distilled water (for 100% hemolysis). […] Controls for base-line hemolysis (blank) and 100% hemolysis consisted of RBC suspended in PBS and TritonX100 (0.2%), respectively.

[6] = test system: human red blood cells (RBC); assay: in vitro
Method: as §3

[7] = test system: ovarian carcinoma 2008 drug-sensitive cells; assay: Cytotoxicity against drug-sensitive ovarian carcinoma 2008 cells; conditions: read-out: LC50 against drug-sensitive 2008 cells
[8] = test system: drug-resistant 2008/MRP1 cells; conditions: human, 3 day
[9] = test system: drug-resistant 2008/MRP1 cells; assay: Cytotoxicity against drug-resistant 2008/MRP1 cells; conditions: read-out: LC50 against drug-resistant 2008/MRP1 cells; 1 day exposure (overnight), FIG. 10
[10] = 24 hours incubation, XTT, read-out: Cancer LC50 Human breast cancer MCF-7
[11] = primary non-cancerous cardiac fibroblasts (CF), 24 hours incubation, XTT, non-cancerous cells, read-out: Cancer LC50 Rat primary cardiac fibroblast CF

Compound	CC50 [1] [µM]	CC50 [2, 10] [µM]	CC50 [3] [µM]	CC50 at 24 h [4, 11] [µM]	HC50 at 3 h [5] [µM]	hemolytic concentration versus cytotoxic concentration against cancer cells [6]	TRAMP-C2 lethal concentration ([1]; mouse prostate cancer TRAMP-C2 cells, XTT assay) [µM]	MCF-7 lethal concentration ([2]; human breast adenocarcinoma MCF-7 cells, XTT assay) [µM]	CC50 ([7]; Homo sapiens, 72 h) [µM]	CC50 [8] [µM]	CC50 [9] [µM]	CC50 ([7]; 1 day exposure (overnight), FIG. 10) [µM]	CC50 ([2]; human, 24 h) [µM]	CC50 at 24 h ([4]; LC50 against non-cancerous CF cells) [µM]	CC50 ([6]; read-out: LC50 RBC (hemolytic concentration inducing lysis of 50% of human red blood cells), 3 hours incubation at 37° C., hemoglobin leakage assay) [µM]
NCCCCCCCCCCCC(=O)N[C@@H](CCCCN)C(=O)NCCCCCCCCCCCC(=O)N[C@@H](CCCCN)C(=O)N[C@@H](CCCCN)C(=O)NCCCCCCCCCCCC(=O)N[C@@H](CCCCN)C(=O)N[C@@H](CCCCN)C(=O)NCCCCCCCCCCCC(=O)N[C@@H](CCCCN)C(N)=O [NC12(KNC12K)3NH2] (H-[12Ado]K[12Ado]KK[12Ado]KK[12Ado]K-NH2)	> 16	7 ± 1	> 16	37 ± 1	> 100	more than one order of magnitude higher									
COc1cccc2c1C(=O)c1c(O)c3c(c(O)c1C2=O)C[C@@](O)(C(=O)CO)C[C@@H]3O[C@H]1C[C@H](N)[C@H](O)[C@H](C)O1 [doxorubicin, reference compound]							0.5 ± 0.5	3.3 ± 2	0.035						
NCCCCCCCCCCCC(=O)N[C@@H](CCCCN)C(=O)N[C@@H](CCCCN)C(=O)NCCCCCCCCCCCC(=O)N[C@@H](CCCCN)C(=O)N[C@@H](CCCCN)C(=O)NCCCCCCCCCCCC(=O)N[C@@H](CCCCN)C(=O)N[C@@H](CCCCN)C(=O)NCCCCCCCCCCCC(=O)N[C@@H](CCCCN)C(N)=O (H-[12Ado]KK[12Ado]KK[12Ado]KK[12Ado]K-NH2)	15	7 ± 1	10 ± 1	35 ± 5	> 100	more than one order of magnitude higher				4	~15	~15			
CCCCCCCCCCCC(=O)N[C@@H](CCCCN)C(=O)N[C@@H](CCCCN)C(=O)NCCCCCCCCCCCC(=O)N[C@@H](CCCCN)C(=O)N[C@@H](CCCCN)C(=O)NCCCCCCCCCCCC(=O)N[C@@H](CCCCN)C(=O)N[C@@H](CCCCN)C(=O)NCCCCCCCCCCCC(=O)N[C@@H](CCCCN)C(N)=O (Lauroyl-KK[12Ado]KK[12Ado]KK[12Ado]K-NH2)	> 16	8 ± 1	17 ± 2	36 ± 6	10 ± 1										
CCCCCCCCCCCC(=O)N[C@@H](CCCCN)C(=O)NCCCCCCCCCCCC(=O)N[C@@H](CCCCN)C(=O)N[C@@H](CCCCN)C(=O)NCCCCCCCCCCCC(=O)N[C@@H](CCCCN)C(N)=O [C12(KNC12K)2NH2] (Lauroyl-K[12Ado]KK[12Ado]K-NH2)	> 16		10 ± 1	67 ± 10	17 ± 6								11	67	
NCCCC[C@H](NC(=O)CCCCCCCCCCCNC(=O)[C@H](CCCCN)NC(=O)[C@H](CCCCN)NC(=O)CCCCCCCCCCCNC(=O)[C@H](CCCCN)NC(=O)[C@H](CCCCN)NC(=O)CCCCCCCCCCCNC(=O)[C@@H](N)CCCCN)C(N)=O [(KNC12K)3NH2] (H-K[12Ado]KK[12Ado]KK[12Ado]K-NH2)	> 16	> 16	> 16	> 16	> 100										> 100
NCCCC[C@H](NC(=O)CCCCCCCCCCCNC(=O)[C@H](CCCCN)NC(=O)[C@H](CCCCN)NC(=O)CCCCCCCCCCCNC(=O)[C@H](CCCCN)NC(=O)[C@H](CCCCN)NC(=O)CCCCCCCCCCCNC(=O)[C@H](CCCCN)NC(=O)[C@@H](N)CCCCN)C(N)=O [K(KNC12K)3NH2] (H-KK[12Ado]KK[12Ado]KK[12Ado]K-NH2)	> 16	> 16	> 16	> 16	> 100										
